Measurements: patent US11964988B2, “Fused heterocyclic compounds as RET kinase inhibitors” (ARRAY BIOPHARMA INC., priority 2018, dated 2024)

Experiments:
RET kinase Wild Type = RET kinase Wild Type (Homo sapiens, UniProt P07949); assay: biochemical;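 further: HTRF kinase activity assay on RET enzyme, 1 h reaction at 22 °C, dual-wavelength readout as percent of control, DMSO-only wells as 100%, pre-quenched reactions as 0%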
Procedure: (§1) The potency of compounds inhibiting several different RET kinase forms (Wild Type, V804M, G810R, & G810S) were determined using CisBio's HTRF® KinEASE™-TK assay technology. […] After a 1 hour incubation at 22° C., the extent of reaction was determined using a PerkinElmer EnVision multimode plate reader via HTRF dual wavelength detection, and the percent of control (POC) was calculated using a ratiometric emission factor. One hundred POC was determined using DMSO only samples (no compound present), and 0 POC was determined using pre-quenched control reactions.

G810R mutant RET kinase = G810R mutant RET kinase (Homo sapiens, UniProt P07949, G810R); assay: biochemical;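 further: HTRF KinEASE-TK enzymatic assay with 1 nM recombinant RET G810R, 1 h at 22 °C, dual-wavelength ratiometric readout, 100% control without compound, 0% from pre-quenched reactions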
Sequence of G810R mutant RET kinase (P07949 29-1114 G810R): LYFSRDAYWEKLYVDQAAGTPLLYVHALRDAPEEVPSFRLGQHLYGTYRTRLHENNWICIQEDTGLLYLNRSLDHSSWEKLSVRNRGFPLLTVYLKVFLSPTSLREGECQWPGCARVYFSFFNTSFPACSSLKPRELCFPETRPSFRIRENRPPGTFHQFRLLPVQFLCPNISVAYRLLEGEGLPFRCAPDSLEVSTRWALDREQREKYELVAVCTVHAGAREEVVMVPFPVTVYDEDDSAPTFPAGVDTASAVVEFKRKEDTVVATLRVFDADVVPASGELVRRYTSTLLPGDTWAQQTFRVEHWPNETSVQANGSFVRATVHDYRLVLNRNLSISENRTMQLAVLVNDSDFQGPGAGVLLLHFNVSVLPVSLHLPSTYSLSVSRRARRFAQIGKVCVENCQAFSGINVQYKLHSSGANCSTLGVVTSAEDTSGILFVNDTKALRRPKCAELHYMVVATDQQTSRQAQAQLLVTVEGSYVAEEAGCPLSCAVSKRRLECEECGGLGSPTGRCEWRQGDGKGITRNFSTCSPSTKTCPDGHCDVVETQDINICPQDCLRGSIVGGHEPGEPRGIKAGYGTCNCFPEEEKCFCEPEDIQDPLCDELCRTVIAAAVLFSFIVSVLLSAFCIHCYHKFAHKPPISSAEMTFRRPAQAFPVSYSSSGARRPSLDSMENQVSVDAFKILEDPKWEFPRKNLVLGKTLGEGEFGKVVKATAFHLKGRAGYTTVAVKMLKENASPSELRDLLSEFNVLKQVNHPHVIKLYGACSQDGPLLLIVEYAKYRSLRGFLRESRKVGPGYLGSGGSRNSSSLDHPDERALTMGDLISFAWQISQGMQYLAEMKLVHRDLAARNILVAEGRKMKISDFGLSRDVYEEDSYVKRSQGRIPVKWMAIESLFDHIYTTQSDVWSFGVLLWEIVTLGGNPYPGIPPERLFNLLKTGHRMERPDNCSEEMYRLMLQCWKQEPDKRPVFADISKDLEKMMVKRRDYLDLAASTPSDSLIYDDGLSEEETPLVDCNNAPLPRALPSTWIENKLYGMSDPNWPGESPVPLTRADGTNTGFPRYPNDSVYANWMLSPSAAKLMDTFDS
Procedure: as §1
The potency of a compound inhibiting G810R or G810S mutant RET kinase was determined using CisBio's HTRF® KinEASE™-TK assay technology. The assays contained G810R or G810S mutant RET produced at Array Biopharma, Inc. (1 nM enzyme). […] After a 1-h incubation at 22° C., the extent of reaction was determined using a PerkinElmer EnVision multimode plate reader via HTRF dual wavelength detection, and the percent of control (POC) was calculated using a ratiometric emission factor. One hundred POC was determined using no test compounds, and 0 POC was determined using pre-quenched control reactions.

G810S mutant RET kinase = G810S mutant RET kinase (Homo sapiens, UniProt P07949, G810S); assay: biochemical;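 further: HTRF KinEASE-TK kinase assay with recombinant enzyme, 1 h at 22 °C, dual-wavelength ratiometric read-out, percent of control (DMSO-only = 100, pre-quenched reaction = 0)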
Sequence of G810S mutant RET kinase (P07949 29-1114 G810S): as the sequence (P07949 29-1114 G810R) above, with R782S counted along it

RET kinase V804M = RET kinase V804M (Homo sapiens, UniProt P07949, V804M); assay: RET Enzyme Assay (CisBio HTRF KinEASE-TK), V804M; type: biochemical; settings: read-out: RET V804M Enz FRET IC50
Sequence of RET kinase V804M (P07949 29-1114 V804M): as the sequence (P07949 29-1114 G810R) above, with V776M, R782G counted along it
Procedure: as §1

Sequence of RET kinase Wild Type (P07949 29-1114): as the sequence (P07949 29-1114 G810R) above, with R782G counted along it

Row | SMILES | IC50 (RET kinase Wild Type) [nM] | IC50 (G810R mutant RET kinase) [nM] | IC50 (G810S mutant RET kinase) [nM] | IC50 (RET kinase V804M) [nM]
1 | COc1ccc2c(c1)cc1n2C(=O)NCc2c-1c1c(N)ncnc1n2C(C)C [Example 85, 1-amino-5-isopropyl-12-methoxy-6,7-dihydropyrimido[5″,4″:4′,5′]pyrrolo[2′,3′:5,6][1,3]diazepino[1,7-a]indol-8(5H)-one] | 389 | 501 | 960 | –
2 | Cc1cc(NC(=O)c2ccc3cc4n(c3c2)CCCc2c-4c3c(N)ncnc3n2C(C)C)nn1C [Example 98, 1-amino-N-(1,5-dimethyl-1H-pyrazol-3-yl)-5-isopropyl-5,6,7,8-tetrahydropyrimido[5″,4″:4′,5′]pyrrolo[3′,2′: 3,4]azepino[1,2-a]indole-11-carboxamide] | 2210 | 4070 | 7950 | –
3 | Nc1ncnc2[nH]c3c(c12)-c1noc(C2CC2)c1C(=O)CC3 [Example 111, 11-amino-3-cyclopropyl-6,7-dihydroisoxazolo[4″,3″:6′,7′]cyclohepta[1′,2′:4,5]pyrrolo[2,3-d]pyrimidin-4(5H)-one] | 3440 | 3300 | 2710 | 6240
4 | CC(C)n1c2c(c3c(N)ncnc31)-c1noc(C3CC3)c1C(=O)N(CCc1cnn(C)c1)C2 [Example 16, 11-amino-3-cyclopropyl-7-isopropyl-5-(2-(1-methyl-1H-pyrazol-4-yl)ethyl)-6,7-dihydroisoxazolo[4,3-c]pyrimido[5′,4′:4,5]pyrrolo[3,2-e]azepin-4(5H)-one] | 205 | 354 | 648 | 1790
5 | CO[C@H]1CCc2c(c3c(N)ncnc3n2C(C)C)-c2noc(C3CC3)c21 (single isomer, unassigned) [Example 59] | 275 | 308 | 859 | 749
6 | CC(C)n1c2c(c3c(N)ncnc31)-c1noc(C3CC3)c1C(=O)N(C1CCN(Cc3ccccc3)C1)C2 (centres unmarked) [Example 17, 11-amino-5-(1-benzylpyrrolidin-3-yl)-3-cyclopropyl-7-isopropyl-6,7-dihydroisoxazolo[4,3-c]pyrimido[5′,4′:4,5]pyrrolo[3,2-e]azepin-4(5H)-one] | 49 | 533 | 433 | 241
7 | Nc1ncnc2c1c1c(n2[C@H]2C[C@@H](CO)C2)CCC(O)c2c-1noc2C1CC1 (some centres unmarked) [Example 136, 11-Amino-3-cyclopropyl-7-((1s,3s)-3-(hydroxymethyl)cyclobutyl)-4,5,6,7-tetrahydroisoxazolo[4″,3″:6′,7′]cyclohepta[1′,2′:4,5]pyrrolo[2,3-d]pyrimidin-4-ol 2,2,2-trifluoroacetate] | 201 | 274 | 817 | 551
8 | CC(C)n1c2c(c3c(N)ncnc31)-c1noc(C3CC3)c1CN(CCO)C2 [Example 40, 2-(11-amino-3-cyclopropyl-7-isopropyl-6,7-dihydroisoxazolo[4,3-c]pyrimido[5′,4′:4,5]pyrrolo[3,2-e]azepin-5(4H)-yl)ethan-1-ol 2,2,2-trifluoroacetate] | 621 | 724 | 973 | 2200
9 | CC(C)n1c2c(c3c(N)ncnc31)-c1cc3ccc(C(=O)Nc4ccn(CC(=O)N(C)C)n4)cc3n1CCC2 [Example 99, 1-amino-N-(1-(2-(dimethylamino)-2-oxoethyl)-1H-pyrazol-3-yl)-5-isopropyl-5,6,7,8-tetrahydropyrimido[5″,4″:4′,5′]pyrrolo[3′,2′: 3,4]azepino[1,2-a]indole-11-carboxamide] | 881 | 2210 | 3250 | –
10 | CC(C)n1c2c(c3c(N)ncnc31)-c1cc3cc(C#N)ccc3n1C(=O)NC2 [Example 78, 1-amino-5-isopropyl-8-oxo-5,6,7,8-tetrahydropyrimido[5″,4″:4′,5′]pyrrolo[2′,3′: 5,6][1,3]diazepino[1,7-a]indole-12-carbonitrile] | 638 | 507 | 720 | –
11 | CC(C)n1c2c(c3c(N)ncnc31)-c1cc3ccc(C(F)(F)F)cc3n1C(=O)NC2 [Example 82, 1-amino-5-isopropyl-11-(trifluoromethyl)-6,7-dihydropyrimido[5″,4″:4′,5′]pyrrolo[2′,3′: 5,6][1,3]diazepino[1,7-a]indol-8(5H)-one] | 358 | 420 | 821 | –
12 | CC(C)n1c2c(c3c(N)ncnc31)-c1noc(C3CC3)c1CN(C(=O)Cc1ccccc1)C2 [Example 39, 1-(11-amino-3-cyclopropyl-7-isopropyl-6,7-dihydroisoxazolo[4,3-c]pyrimido[5′,4′:4,5]pyrrolo[3,2-e]azepin-5(4H)-yl)-2-phenylethan-1-one] | 893 | 3070 | 4140 | –
13 | CC(C)n1c2c(c3c(N)ncnc31)-c1ccc(NC(=O)CC3CC3)cc1C(=O)NC2 [Example 48, N-(12-amino-8-isopropyl-5-oxo-5,6,7,8-tetrahydrobenzo[c]pyrimido[5′,4′:4,5]pyrrolo[3,2-e]azepin-3-yl)-2-cyclopropylacetamide] | 2440 | 7880 | – | –
14 | COc1ccc2cc3n(c2c1)C(=O)NCc1c-3c2c(N)ncnc2n1C(C)C [Example 79, 1-amino-5-isopropyl-11-methoxy-6,7-dihydropyrimido[5″,4″:4′,5′]pyrrolo[2′,3′: 5,6][1,3]diazepino[1,7-a]indol-8(5H)-one] | 356 | 270 | 591 | –
15 | CC(C)n1c2c(c3c(N)ncnc31)-c1cnn(C3CC3)c1C(=O)NC2 [Example 109, 11-amino-3-cyclopropyl-7-isopropyl-3,5,6,7-tetrahydro-4H-pyrazolo[3,4-c]pyrimido[5′,4′:4,5]pyrrolo[3,2-e]azepin-4-one 2,2,2-trifluoroacetate] | 1780 | 1810 | 2270 | –
16 | CC(C)n1c2c(c3c(N)ncnc31)-c1cc(C3CC3)nn1C(=O)NC2 [Example 106, 12-Amino-2-cyclopropyl-8-isopropyl-7,8-dihydropyrazolo[1,5-c]pyrimido[5′,4′:4,5]pyrrolo[3,2-e][1,3]diazepin-5(6H)-one] | 404 | 2420 | 3270 | –
17 | Cc1ccc2cc3n(c2c1)C(=O)NCc1c-3c2c(N)ncnc2n1C(C)C [Example 80, 1-amino-5-isopropyl-11-methyl-6,7-dihydropyrimido[5″,4″:4′,5′]pyrrolo[2′,3′: 5,6][1,3]diazepino[1,7-a]indol-8(5H)-one] | 195 | 320 | 404 | –

Further compounds by falling IC50 (RET kinase Wild Type), results first:

Row | IC50 (RET kinase Wild Type) [nM] | IC50 (G810R mutant RET kinase) [nM] | IC50 (G810S mutant RET kinase) [nM] | IC50 (RET kinase V804M) [nM] | SMILES
18 | 8420 | – | – | – | CC(C)n1c2c(c3c(N)ncnc31)-c1ccc(NC(=O)NC3CC3)cc1C(=O)NC2 [Example 49, 1-(12-amino-8-isopropyl-5-oxo-5,6,7,8-tetrahydrobenzo[c]pyrimido[5′,4′:4,5]pyrrolo[3,2-e]azepin-3-yl)-3-cyclopropylurea]
19 | 2180 | 2570 | 5080 | – | CC(C)n1c2c(c3c(N)ncnc31)-c1ccc(Cl)c(F)c1C(=O)NC2 [Example 50, 12-amino-3-chloro-4-fluoro-8-isopropyl-7,8-dihydrobenzo[c]pyrimido[5′,4′:4,5]pyrrolo[3,2-e]azepin-5(6H)-one]
20 | 1790 | 2180 | 2300 | 6830 | Nc1ncnc2[nH]c3c(c12)-c1noc(C2CC2)c1C(=O)NC3 [Example 66, 11-amino-3-cyclopropyl-6,7-dihydroisoxazolo[4,3-c]pyrimido[5′,4′:4,5]pyrrolo[3,2-e]azepin-4(5H)-one 2,2,2-trifluoroacetate]
21 | 318 | 1280 | 1220 | – | CCC(=O)N1Cc2c(noc2C2CC2)-c2c(n(C(C)C)c3ncnc(N)c23)C1 [Example 37, 1-(11-amino-3-cyclopropyl-7-isopropyl-6,7-dihydroisoxazolo[4,3-c]pyrimido[5′,4′:4,5]pyrrolo[3,2-e]azepin-5(4H)-yl)propan-1-one 2,2,2-trifluoroacetate]
22 | 183 | 154 | 758 | 216 | Nc1ncnc2c1c1c(n2C2CC(F)(F)C2)CCC(O)c2c-1noc2C1CC1 (centres unmarked) [Example 148, 11-amino-3-cyclopropyl-7-(3,3-difluorocyclobutyl)-4,5,6,7-tetrahydroisoxazolo[4″,3″:6′,7′]cyclohepta[1′,2′:4,5]pyrrolo[2,3-d]pyrimidin-4-ol 2,2,2-trifluoroacetate]
23 | 182 | 244 | 634 | – | CC(C)n1c2c(c3c(N)ncnc31)-c1cc3ccc(Cl)cc3n1C(=O)NC2 [Example 84, 1-amino-11-chloro-5-isopropyl-6,7-dihydropyrimido[5″,4″:4′,5′]pyrrolo[2′,3′: 5,6][1,3]diazepino[1,7-a]indol-8(5H)-one]
24 | 153 | 253 | 397 | 692 | CC(C)n1c2c(c3c(N)ncnc31)-c1noc(C3CC3)c1C(=O)N(c1cnn(C)c1)C2 [Example 18, 11-amino-3-cyclopropyl-7-isopropyl-5-(1-methyl-1H-pyrazol-4-yl)-6,7-dihydroisoxazolo[4,3-c]pyrimido[5′,4′:4,5]pyrrolo[3,2-e]azepin-4(5H)-one]
25 | 142 | 308 | 581 | 595 | CNC1CCc2c(c3c(N)ncnc3n2C(C)C)-c2noc(C3CC3)c21 (centres unmarked) [Example 27, 3-cyclopropyl-7-isopropyl-N4-methyl-4,5,6,7-tetrahydroisoxazolo[4″,3″:6′,7′]cyclohepta[1′,2′:4,5]pyrrolo[2,3-d]pyrimidine-4,11-diamine]
26 | 112 | 252 | 293 | 865 | COc1ccc(CCN2Cc3c(c4c(N)ncnc4n3C(C)C)-c3noc(C4CC4)c3C2=O)cc1 [Example 14, 11-amino-3-cyclopropyl-7-isopropyl-5-(4-methoxyphenethyl)-6,7-dihydroisoxazolo[4,3-c]pyrimido[5′,4′:4,5]pyrrolo[3,2-e]azepin-4(5H)-one]
